Columns and labels:
cortisol [1] = assay: 24-hour urine cortisol during mifepristone treatment of Cushing's syndrome patients; type: in vivo, human; settings: Mean ± SD
Experimental: (§1) The Cushing's syndrome study reported herein was conducted in accordance with the Declaration of Helsinki and Good Clinical Practice (GCP) according to International Conference on Harmonization (ICH) guidelines.
(§2) Dosing Schedule Dosing was started with 300 mg of mifepristone once per day for 14 days. After 14 days, if no clinical improvement was seen but the drug was well tolerated, the dose of mifepristone was increased to 600 mg once per day. After 4 weeks of dosing at 600 mg once per day, if no clinical improvement was seen but the drug was well tolerated, the dose was increased to 900 mg once per day. Dose escalation was based on weight with the maximum dose no higher than 20 mg/kg/day. […] After 4 weeks of dosing at 900 mg once per day, if no clinical improvement was seen but the drug was well tolerated, the dose was increased to 1200 mg once per day. Study duration was 24 weeks.
(§3) Potassium levels were obtained on every subject at either screening or the pre-drug administration baseline visit, and then also at every scheduled post-baseline visit. Potassium levels post-baseline were therefore obtained as early as day 7 and through day 210 (week 30 was the last visit and was the 6 week follow-up visit). ACTH, and cortisol were measured at six visits (week 2 (day 14), week 6 (day 42), week 10 (day 70), week 16 (day 112), and week 24 (day 168) week 6 follow-up (day 210)).

[2] = test system: Cushing's syndrome patients; settings: cited from earlier work
ACTH = ACTH levels during mifepristone treatment of Cushing's syndrome patients; type: in vivo, human; settings: for ACTH Visit Change Values from Baseline / Ratio of ACTH Visit Change Values from Baseline per Baseline (ACTH_CHG/ACTH Baseline): Mean ± SD
Excerpt: (§4) The term “measuring the level,” in the context of cortisol, ACTH, mifepristone, or other compounds, refers to determining, detecting, or quantitating the amount, level, or concentration of, for example, cortisol, ACTH, mifepristone, or other compound in a sample obtained from a subject. Plasma or serum samples are often used for measuring ACTH or cortisol level.
(§5) The types of samples that are suitable for ACTH determination can be serum, plasma, saliva, urine, or any other biological fluid taken from a subject. In preferred embodiments, the sample is a serum sample, or is a plasma sample. The level of ACTH can be measured using various methods, including but not limited to, immunoassays, e.g., competitive immunoassay, radioimmunoassay (MA), immunofluorometric enzyme assay, and ELISA; competitive protein-binding assays; liquid chromatography (e.g., HPLC); and mass spectrometry, e.g., high-performance liquid chromatography/triple quadrupole-mass spectrometry (LC-MS/MS). Commercial kits for measuring ACTH are readily available, e.g., from Mayo clinic (Test ID: ACTH), Siemens Healthcare Global (Immulite® 2000 ACTH assay), and Roche Molecular Diagnostics (Catalog No. 03255751190). In preferred embodiments, ACTH levels are measured using a radioimmunoassay (RIA), most preferable a two-site MA, such as performed by Quest Diagnostics (Secaucus, N.J. 07094).
as §1, §2, §3

[3] = test system: psychotic major depression (PMD) subjects; assay: Double blind psychotic major depression (PMD) trials: hypokalemia; type: in vivo, human
Excerpt: Clinically meaningful hypokalemia (≤3.1) has been reported in 16 of 821 (1.9%) mifepristone treated subjects (12 in completed double blind PMD trials, and 4 in a completed Alzheimer's trial), and in 5 of 626 (0.8%) placebo treated subjects in completed PMD trials.

cortisol [4] = assay: Total serum cortisol during mifepristone treatment of Cushing's syndrome patients; type: in vivo, human; settings: for Total Serum Cortisol Visit Values: Mean ± SD
Excerpt: as §4
as §5, with “cortisol” for “ACTH”, “(LC-MS/MS).” for “(LC-MS/MS). Commercial kits for measuring ACTH are readily available, e.g., from Mayo clinic (Test ID: ACTH), Siemens Healthcare Global (Immulite® 2000 ACTH assay), and Roche Molecular Diagnostics (Catalog No. 03255751190).”, “LC-MS/MS,” for “a radioimmunoassay (RIA), most preferable a two-site MA,”
as §1, §2, §3

[5] = Day 210 (6 week follow-up), Hypokalemic
[6] = Day 210 (6 week follow-up), Non-Hypokalemic
[7] = 43 subjects with Cushing's disease

Compound: CC#C[C@]1(O)CC[C@H]2[C@@H]3CCC4=CC(=O)CCC4=C3[C@@H](c3ccc(N(C)C)cc3)C[C@@]21C [mifepristone, 11β-(4-dimethylaminophenyl)-17β-hydroxy-17α-(1-propynyl)-estra-4,9-dien-3-one]
- 24 Hour Urine Cortisol (nmol/24 hr)/ACTH Ratio Visit Values (cortisol [1]; Day 42, Hypokalemic): 26.1 ± 18.4 (6)
- 24 Hour Urine Cortisol Visit Change Values from Baseline (cortisol [1]; Day 42, Hypokalemic): 641 ± 3678 (6) nmol/24 hr
- 24 Hour Urine Cortisol Visit Values (cortisol [1]; Day 42, Hypokalemic): 4373 ± 5347 (6) nmol/24 hr
- 24 Hour Urine Cortisol (nmol/24 hr)/ACTH Ratio Visit Values (cortisol [1]; Day 42, Non-Hypokalemic): 7.9 ± 6.0 (35)
- 24 Hour Urine Cortisol Visit Change Values from Baseline (cortisol [1]; Day 42, Non-Hypokalemic): 329 ± 967 (35) nmol/24 hr
- 24 Hour Urine Cortisol Visit Values (cortisol [1]; Day 42, Non-Hypokalemic): 886 ± 1060 (35) nmol/24 hr
- 24 Hour Urine Cortisol (nmol/24 hr)/ACTH Ratio Visit Values (cortisol [1]; Day 70, Hypokalemic): 33.5 ± 16.1 (6)
- 24 Hour Urine Cortisol Visit Change Values from Baseline (cortisol [1]; Day 70, Hypokalemic): 4856 ± 4805 (6) nmol/24 hr
- 24 Hour Urine Cortisol Visit Values (cortisol [1]; Day 70, Hypokalemic): 9132 ± 9321 (6) nmol/24 hr
- 24 Hour Urine Cortisol (nmol/24 hr)/ACTH Ratio Visit Values (cortisol [1]; Day 70, Non-Hypokalemic): 17.0 ± 32.7 (30)
- 24 Hour Urine Cortisol Visit Change Values from Baseline (cortisol [1]; Day 70, Non-Hypokalemic): 1045 ± 3500 (30) nmol/24 hr
- 24 Hour Urine Cortisol Visit Values (cortisol [1]; Day 70, Non-Hypokalemic): 1696 ± 3387 (30) nmol/24 hr
- 24 Hour Urine Cortisol (nmol/24 hr)/ACTH Ratio Visit Values (cortisol [1]; Day 112, Hypokalemic): 30.9 ± 31.0 (9)
- 24 Hour Urine Cortisol Visit Change Values from Baseline (cortisol [1]; Day 112, Hypokalemic): 2916 ± 2593 (9) nmol/24 hr
- 24 Hour Urine Cortisol Visit Values (cortisol [1]; Day 112, Hypokalemic): 3552 ± 2827 (9) nmol/24 hr
- 24 Hour Urine Cortisol (nmol/24 hr)/ACTH Ratio Visit Values (cortisol [1]; Day 112, Non-Hypokalemic): 9.6 ± 16.3 (23)
- 24 Hour Urine Cortisol Visit Change Values from Baseline (cortisol [1]; Day 112, Non-Hypokalemic): 104 ± 5293 (23) nmol/24 hr
- 24 Hour Urine Cortisol Visit Values (cortisol [1]; Day 112, Non-Hypokalemic): 1314 ± 3351 (23) nmol/24 hr
- 24 Hour Urine Cortisol (nmol/24 hr)/ACTH Ratio Visit Values (cortisol [1]; Day 168, Hypokalemic): 19.3 ± 9.5 (5)
- 24 Hour Urine Cortisol Visit Change Values from Baseline (cortisol [1]; Day 168, Hypokalemic): 4128 ± 6624 (5) nmol/24 hr
- 24 Hour Urine Cortisol Visit Values (cortisol [1]; Day 168, Hypokalemic): 5615 ± 5053 (5) nmol/24 hr
- 24 Hour Urine Cortisol (nmol/24 hr)/ACTH Ratio Visit Values (cortisol [1]; Day 168, Non-Hypokalemic): 12.4 ± 15.5 (36)
- 24 Hour Urine Cortisol Visit Change Values from Baseline (cortisol [1]; Day 168, Non-Hypokalemic): 512 ± 4575 (36) nmol/24 hr
- 24 Hour Urine Cortisol Visit Values (cortisol [1]; Day 168, Non-Hypokalemic): 1444 ± 3127 (36) nmol/24 hr
- 24 Hour Urine Cortisol (nmol/24 hr)/ACTH Ratio Visit Values (cortisol [1]; [5]): 11.5 ± 7.5 (3)
- 24 Hour Urine Cortisol Visit Change Values from Baseline (cortisol [1]; [5]): 2497 ± 3776 (3) nmol/24 hr
- 24 Hour Urine Cortisol Visit Values (cortisol [1]; [5]): 5129 ± 6335 (3) nmol/24 hr
- 24 Hour Urine Cortisol (nmol/24 hr)/ACTH Ratio Visit Values (cortisol [1]; [6]): 12.5 ± 27.9 (35)
- 24 Hour Urine Cortisol Visit Change Values from Baseline (cortisol [1]; [6]): 471 ± 2843 (35) nmol/24 hr
- 24 Hour Urine Cortisol Visit Values (cortisol [1]; [6]): 1423 ± 6086 (35) nmol/24 hr
- patients with serum potassium levels less than 3.5 mEq/L ([2]; of 43 Cushing's syndrome patients (ACTH-dependent and ACTH-independent)): 22 patients
- patients with serum potassium levels less than 2.5 mEq/L (severe hypokalemia) ([2]; of the 22 hypokalemic of 43 patients): 3 patients
- ACTH increase during mifepristone treatment (ACTH; [7]): about two-fold
- ACTH Visit Change Values from Baseline (ACTH; Day 14, Hypokalemic): 60.8 ± 99.6 (8) ng/L
- Ratio of ACTH Visit Change Values from Baseline per Baseline (ACTH_CHG/ACTH Baseline) (ACTH; Day 14, Hypokalemic): 1.87 ± 1.32 (8)
- ACTH Visit Change Values from Baseline (ACTH; Day 14, Non-Hypokalemic): 30.6 ± 26.9 (38) ng/L
- Ratio of ACTH Visit Change Values from Baseline per Baseline (ACTH_CHG/ACTH Baseline) (ACTH; Day 14, Non-Hypokalemic): 1.77 ± 0.72 (38)
- ACTH Visit Change Values from Baseline (ACTH; Day 42, Hypokalemic): 86.3 ± 58.2 (6) ng/L
- Ratio of ACTH Visit Change Values from Baseline per Baseline (ACTH_CHG/ACTH Baseline) (ACTH; Day 42, Hypokalemic): 2.50 ± 0.61 (6)
- ACTH Visit Change Values from Baseline (ACTH; Day 42, Non-Hypokalemic): 40.6 ± 54.7 (35) ng/L
- Ratio of ACTH Visit Change Values from Baseline per Baseline (ACTH_CHG/ACTH Baseline) (ACTH; Day 42, Non-Hypokalemic): 2.02 ± 0.97 (35)
- ACTH Visit Change Values from Baseline (ACTH; Day 70, Hypokalemic): 211.8 ± 147.5 (6) ng/L
- Ratio of ACTH Visit Change Values from Baseline per Baseline (ACTH_CHG/ACTH Baseline) (ACTH; Day 70, Hypokalemic): 4.08 ± 2.51 (6)
- ACTH Visit Change Values from Baseline (ACTH; Day 70, Non-Hypokalemic): 49.2 ± 22.5 (30) ng/L
- Ratio of ACTH Visit Change Values from Baseline per Baseline (ACTH_CHG/ACTH Baseline) (ACTH; Day 70, Non-Hypokalemic): 2.06 ± 1.01 (30)
- ACTH Visit Change Values from Baseline (ACTH; Day 112, Hypokalemic): 101.4 ± 159.6 (9) ng/L
- Ratio of ACTH Visit Change Values from Baseline per Baseline (ACTH_CHG/ACTH Baseline) (ACTH; Day 112, Hypokalemic): 2.53 ± 1.49 (9)
- ACTH Visit Change Values from Baseline (ACTH; Day 112, Non-Hypokalemic): 70.2 ± 82.2 (23) ng/L
- Ratio of ACTH Visit Change Values from Baseline per Baseline (ACTH_CHG/ACTH Baseline) (ACTH; Day 112, Non-Hypokalemic): 2.47 ± 1.87 (23)
- ACTH Visit Change Values from Baseline (ACTH; Day 168, Hypokalemic): 151.2 ± 166.5 (5) ng/L
- Ratio of ACTH Visit Change Values from Baseline per Baseline (ACTH_CHG/ACTH Baseline) (ACTH; Day 168, Hypokalemic): 3.30 ± 2.54 (5)
- ACTH Visit Change Values from Baseline (ACTH; Day 168, Non-Hypokalemic): 48.2 ± 73.8 (37) ng/L
- Ratio of ACTH Visit Change Values from Baseline per Baseline (ACTH_CHG/ACTH Baseline) (ACTH; Day 168, Non-Hypokalemic): 2.08 ± 1.31 (37)
- ACTH Visit Change Values from Baseline (ACTH; [5]): 113.7 ± 167.7 (3) ng/L
- Ratio of ACTH Visit Change Values from Baseline per Baseline (ACTH_CHG/ACTH Baseline) (ACTH; [5]): 1.36 ± 0.46 (3)
- ACTH Visit Change Values from Baseline (ACTH; [6]): 13.4 ± 34.0 (37) ng/L
- Ratio of ACTH Visit Change Values from Baseline per Baseline (ACTH_CHG/ACTH Baseline) (ACTH; [6]): 1.33 ± 0.61 (37)
- rise in ACTH levels following an initial increase in mifepristone dose (FIG. 1) (ACTH; patients who did not experience hypokalemia): about 25 pg/mL
- Clinically meaningful hypokalemia (≤3.1) ([3]; 16 of 821 mifepristone treated subjects, PMD and Alzheimer's trials together): 1.9%
- Hypokalemia in the range of 2.4 to 3.4 mEq/L ([3]; 61 of 782 mifepristone treated subjects): 7.8%
- Clinically meaningful hypokalemia (≤3.1), subjects ([3]; completed double blind PMD trials): 12
- serum cortisol increase during mifepristone treatment (cortisol [4]; [7]): increased to a smaller degree
- Total Serum Cortisol Visit Values (cortisol [4]; Day 14, Hypokalemic): 1261 ± 786 (8) nmol/L
- Total Serum Cortisol Visit Values (cortisol [4]; Day 14, Non-Hypokalemic): 782 ± 246 (38) nmol/L
- Total Serum Cortisol Visit Values (cortisol [4]; Day 42, Hypokalemic): 1274 ± 401 (6) nmol/L
- Total Serum Cortisol Visit Values (cortisol [4]; Day 42, Non-Hypokalemic): 828 ± 249 (35) nmol/L
- Total Serum Cortisol Visit Values (cortisol [4]; Day 70, Hypokalemic): 1390 ± 283 (6) nmol/L
- Total Serum Cortisol Visit Values (cortisol [4]; Day 70, Non-Hypokalemic): 1025 ± 546 (30) nmol/L
- Total Serum Cortisol Visit Values (cortisol [4]; Day 112, Hypokalemic): 1318 ± 677 (9) nmol/L
- Total Serum Cortisol Visit Values (cortisol [4]; Day 112, Non-Hypokalemic): 813 ± 318 (23) nmol/L
- Total Serum Cortisol Visit Values (cortisol [4]; Day 168, Hypokalemic): 1298 ± 597 (5) nmol/L
- Total Serum Cortisol Visit Values (cortisol [4]; Day 168, Non-Hypokalemic): 948 ± 537 (37) nmol/L
- Total Serum Cortisol Visit Values (cortisol [4]; [5]): 1228 ± 561 (3) nmol/L
- Total Serum Cortisol Visit Values (cortisol [4]; [6]): 696 ± 477 (37) nmol/L

Reference: patent publication US11202787B2, “Use of ACTH in assessment and prophylactic treatment of hypokalemia associated with glucocorticoid receptor modulator treatment of Cushing's syndrome patients” (Corcept Therapeutics, Inc., priority 2018, dated 2021)
